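Protocol summary: plate cells (96-well), add compound at 5 concentrations, incubate 48 h, interpolate endpoints linearly. The concentration for 50% growth inhibition is given as GI50. TGI is the concentration that stops growth completely.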
Legend:
Assay in all cases: NCI tumour cell line growth inhibition, 48 h
[1] = test system: SNB-75 CNS
[2] = test system: BT-549 breast
[3] = test system: HT29 colon
[4] = test system: SF-295 CNS
[5] = test system: CAKI-1 renal
[6] = test system: MDA-MB-468 breast
[7] = test system: OVCAR-3 ovarian
[8] = test system: SN12C renal
[9] = test system: A498 renal
[10] = test system: OVCAR-5 ovarian
[11] = test system: SNB-19 CNS
[12] = test system: LOX IMVI melanoma
[13] = test system: MDA-MB-231 breast
[14] = test system: CCRF-CEM leukemia
[15] = test system: RPMI-8226 leukemia
[16] = test system: DU-145 prostate
[17] = test system: HCT-116 colon
[18] = test system: MOLT-4 leukemia
[19] = test system: HL-60(TB) leukemia
[20] = test system: K-562 leukemia
[21] = test system: PC-3 prostate
[22] = test system: A549 NSCLC
[23] = test system: TK-10 renal
[24] = test system: T-47D breast
[25] = test system: SK-MEL-5 melanoma
[26] = test system: UACC-257 melanoma
[27] = test system: KM12 colon
[28] = test system: SK-MEL-2 melanoma
[29] = test system: UACC-62 melanoma

N/C(=N\c1nc2ccccc2s1)NC(=O)Nc1ccccc1F
GI50 [1]: 0.201 µM | TGI [1]: 7.22 µM | GI50 [2]: 0.477 µM | TGI [2]: 26 µM | GI50 [3]: 0.369 µM | TGI [3]: 10.1 µM | GI50 [4]: 0.401 µM | TGI [4]: 15.5 µM | GI50 [5]: 0.525 µM | TGI [5]: 15.9 µM | GI50 [6]: 0.817 µM | TGI [6]: 3.42 µM | GI50 [7]: 0.369 µM | TGI [7]: 4.74 µM | GI50 [8]: 0.842 µM | TGI [8]: 25.8 µM | GI50 [9]: 17.8 µM | TGI [9]: 34.1 µM | GI50 [10]: 3.28 µM | TGI [10]: 31.9 µM | GI50 [11]: 1.73 µM | TGI [11]: 24 µM | GI50 [12]: 0.62 µM | TGI [12]: 19.8 µM | GI50 [13]: 0.724 µM | TGI [13]: 21.2 µM | GI50 [14]: 0.694 µM | TGI [14]: > 100 µM | GI50 [15]: 1.26 µM | TGI [15]: 17.3 µM | GI50 [16]: 2.85 µM | TGI [16]: 15.6 µM | GI50 [17]: 0.462 µM | TGI [17]: 18.5 µM | GI50 [18]: 0.57 µM | TGI [18]: 69.8 µM | GI50 [19]: 0.385 µM | TGI [19]: 13.6 µM | GI50 [20]: 0.307 µM | TGI [20]: > 100 µM | GI50 [21]: 2.07 µM | TGI [21]: 21.2 µM | GI50 [22]: 0.955 µM | TGI [22]: 26.6 µM | GI50 [23]: 12.1 µM | TGI [23]: 30 µM | GI50 [24]: 2.85 µM | TGI [24]: > 100 µM | GI50 [25]: 0.614 µM | TGI [25]: 11.1 µM | GI50 [26]: 14.4 µM | TGI [26]: 75.4 µM | GI50 [27]: 0.475 µM | TGI [27]: 37.6 µM | GI50 [28]: 0.321 µM | TGI [28]: 10.3 µM | GI50 [29]: 0.387 µM | TGI [29]: 18.9 µM

Reference: PubChem BioAssay (NCI)
